Results taken from patent US6214881A, “IL-8 receptor antagonists” (SmithKline Beecham Corporation, priority 1999, dated 2001).

Tested on: recombinant human IL-8 type a and b receptors
Test: Receptor binding assays ([125I] IL-8 / 125I Gro-a, CHO membranes)
Details: 125I IL-8 (0.25 nM) or 125I Gro-a; IL-8Ra or IL-8Rb membranes from Chinese hamster ovary cells; receptor subtype not specified for the result
Procedure: The IL-8, and Gro-a chemokine inhibitiory effects of compounds of the present invention were determined by the following in vitro assay:
[^125 I] IL-8 (human recombinant) is obtained from Amersham Corp., Arlington Heights, Ill., with specific activity 2000 Ci/mmol. Gro-a is obtained from NEN-New England Nuclear. All other chemicals are of analytical grade. High levels of recombinant human IL-8 type a and b receptors are individually expressed in Chinese hamster ovary cells as described previously (Holmes, et al., Science, 1991, 253, 1278). The Chinese hamster ovary membranes are homogenized according to a previously described protocol (Haour. et al., J Biol Chem., 249 pp 2195-2205 (1974)). Except that the homogenization buffer is changed to 10 mM Tris-HCL, 1 mM MgSO4, 0.5 mM EDTA (ethylene-diaminetetra-acetic acid), 1 mMPMSF (a-toluenesulphonyl fluoride), 0.5 mg/L Leupeptin, pH 7.5. Membrane protein concentration is determined using Pierce Co. micro-assay kit using bovine serum albumin as a standard. All assays are performed in a 96-well micro plate format. Each reaction mixture contains ^125 I IL-8 (0.25 nM) or ^125 I Gro-a and 0.5 μg/mL of IL-8Ra or 1.0 μg/mL of IL-8Rb membranes in 20 mM Bis-Trispropane and 0.4 mM Tris HCl buffers, pH 8.0, containing 1.2 mM MgSO4, 0.1 mM EDTA, mM NaCl and 0.03% CHAPS. […] The filter is then dried and counted on the Betaplate liquid scintillation counter. […]

activity in receptor binding assay (inhibition of IL-8 / Gro-a binding): active
SMILES: Cc1ccc(S(=O)(=O)NC(=O)c2cccc(NC(=O)Nc3ccccc3Br)c2)cc1 [Example 1, N-[3-(4-methylphenylsulfonyl)carboxamido]-N'-(2-bromophenyl)urea]
